Measured values from patent publication US7541353B2, “Compounds for the treatment of hepatitis C” (Bristol-Myers Squibb Company, priority 2007, dated 2009).
Like-named read-outs stand apart in the source and are kept apart here.

Tests used:
[1] = system: HCV replicon cells; test: HCV replicon FRET assay; type: cell-based
Procedure: FRET Assay Preparation. The HCV FRET screening assay was performed in 96-well cell culture plates. The FRET peptide (Anaspec, Inc.) (Taliani et al., Anal. Biochem. 1996, 240, 60-67) contains a fluorescence donor, EDANS, near one end of the peptide and an acceptor, DABCYL, near the other end. The fluorescence of the peptide is quenched by […] resonance energy transfer (RET) between the donor and the acceptor, but as the NS3 protease cleaves the peptide the products are released from RET quenching and the fluorescence of the donor becomes apparent. The assay reagent was made as follows: 5× cell Luciferase cell culture lysis reagent from Promega (#E153A) diluted to 1× with dH2O, NaCl added to 150 mM final, the FRET peptide diluted to 20 μM final from a 2 mM stock.
To prepare plates, HCV replicon cells, with or without a Renilla luciferase reporter gene, were trypsinized and plated in a 96-well plate with titrated test compounds added in columns 3 through 12; columns 1 and 2 contained a control compound (HCV control inhibitor), and the bottom row contained cells with DMSO only. The plates were then placed in a CO2 incubator at 37° C.
Assays. Subsequent to addition of the test compounds described above (FRET Assay Preparation), at various times the plate was removed and Alamar blue solution (Trek Diagnostics, #00-100) was added to measure cellular toxicity. After reading in a Cytoflour 4000 instrument (PE Biosystems), plates were rinsed with PBS and then used for FRET assay by the addition of 30 ul of the FRET peptide assay reagent described above (FRET Assay Preparation) per well. The plate was then placed into the Cytoflour 4000 instrument which had been set to 340 excite/490 emission, automatic mode for up to 20 cycles and the plate read in a kinetic mode. Typically, the signal to noise using an endpoint analysis after the reads was at least three-fold. Alternatively, after Alamar blue reading, plates were rinsed with PBS, then used for luciferase assay using the Promega Dual-Glo Luciferase Assay System or the Promega EnduRen Live Cell Substrate assay.
Compound analysis was performed by quantification of the relative HCV replicon inhibition and the relative cytotoxicity values. To calculate cytoxicity values, the average Alamar Blue fluorescence signals from the control wells were set as 100% non-toxic. The individual signals in each of the compound test wells were then divided by the average control signal and multiplied by 100% to determine […]. To calculate the HCV replicon inhibition values, an average background value was obtained from the two wells containing the highest amount of HCV control inhibitor at the end of the assay period. These numbers were similar to those obtained from naïve Huh-7 cells. The background numbers were then subtracted from the average signal obtained from the control wells and this number was used as 100% activity. The individual signals in each of the compound test wells were then divided by the averaged control values after background subtraction and multiplied by 100% to determine percent activity. EC50 values were calculated as the concentration which caused a 50% reduction in FRET or luciferase activity. The two numbers generated for the compound plate, percent cytoxicity and percent activity, were used to determine compounds of interest for further analysis.

[2] = target: T1, HCV NS5B (Hepatitis C virus genotype 1b, UniProt Q9WMX2); test: Modified HCV NS5B RdRp enzyme assay (preincubation protocol); type: biochemical
T1 construct: The cDNA encoding the NS5B protein of HCV, genotype 1b; made in house; host or cells: E. coli BL21(DE3)
Procedure: HCV NS5B RdRp cloning, expression, and purification. The cDNA encoding the NS5B protein of HCV, genotype 1b, was cloned into the pET21a expression vector. The protein was expressed with an 18 amino acid C-terminal truncation to enhance the solubility. The E. coli competent cell line BL21(DE3) was used for expression of the protein. Cultures were grown at 37° C. for ˜4 hours until the cultures reached an optical density of 2.0 at 600 nm. The cultures were cooled to 20° C. and induced with 1 mM IPTG. Fresh ampicillin was added to a final concentration of 50 μg/ml and the cells were grown overnight at 20° C.
Cell pellets (3L) were lysed for purification to yield 15-24 mgs of purified NS5B. The lysis buffer consisted of 20 mM Tris-HCl, pH 7.4, 500 mM NaCl, 0.5% triton X-100, 1 mM DTT, 1 mM EDTA, 20% glycerol, 0.5 mg/ml lysozyme, 10 mM MgCl2, 15 ug/ml deoxyribonuclease I, and Complete™ protease inhibitor tablets (Roche). After addition of the lysis buffer, frozen cell pellets were resuspended using a tissue homogenizer. To reduce the viscosity of the sample, aliquots of the lysate were sonicated on ice using a microtip attached to a Branson sonicator. The sonicated lysate was centrifuged at 100,000×g for 1 hr at 4° C. and filtered through a 0.2 μm filter unit (Corning).
The protein was purified using two sequential chromatography steps: Heparin sepharose CL-6B and polyU sepharose 4B (Pharmacia). The chromatography buffers were identical to the lysis buffer but contained no lysozyme, deoxyribonuclease I, MgCl2 or protease inhibitor and the NaCl concentration of the buffer was adjusted according to the requirements for charging the protein onto the column. Each column was eluted with a NaCl gradient which varied in length from 5-50 column volumes depending on the column type. After the final chromatography step, the resulting purity of the enzyme is >90% based on SDS-PAGE analysis. The enzyme was aliquoted and stored at −80° C.
Standard HCV NS5B RdRp enzyme assay. HCV RdRp genotype 1b assays were run in a final volume of 60 μl in 96 well plates (Corning 3600). The assay buffer is composed of 20 mM Hepes, pH 7.5, 2.5 mM KCl, 2.5 mM MgCl2, 1 mM DTT, 1.6 U RNAse inhibitor (Promega N2515), 0.01 mg/ml BSA (Sigma B6917), and 2% glycerol. All compounds were serially diluted (3-fold) in DMSO and diluted further in water such that the final concentration of DMSO in the assay was 2%. HCV RdRp genotype 1b enzyme was used at a final concentration of 28 nM. A polyA template was used at 6 nM, and a biotinylated oligo-dT12 primer was used at 180 nM final concentration. Template was obtained commercially (Amersham 27-4110). Biotinylated primer was prepared by Sigma Genosys. 3H-UTP was used at 0.6 μCi (0.29 μM total UTP). Reactions were initiated by the addition of enzyme, incubated at 30° C. for 60 min, and stopped by adding 25 μl of 50 mM EDTA containing SPA beads (4 μg/μl, Amersham RPNQ 0007). Plates were read on a Packard Top Count NXT after >1 hr incubation at room temperature.
Modified HCV NS5B RdRp enzyme assay. A modified enzyme assay was performed essentially as described for the standard enzyme assay except for the following: The biotinylated oligo dT12 primer was precaptured on streptavidin-coated SPA beads by mixing primer and beads in assay buffer and incubating at room temperature for one hour. Unbound primer was removed after centrifugation. The primer-bound beads were resuspended in 20 mM Hepes buffer, pH 7.5 and used in the assay at final concentrations of 20 nM primer and 0.67 μg/μl beads. Order of addition in the assay: enzyme (1.75 nM) was added to diluted compound followed by the addition of a mixture of template (0.36 nM), 3H-UTP (0.6 μCi, 0.29 μM), and primer-bound beads, to initiate the reaction; concentrations given are final. Reactions were allowed to proceed for 4 hours at 30° C.
IC50 values for compounds were determined using seven different [I]. […]

T1 sequence (Q9WMX2 2420-2992): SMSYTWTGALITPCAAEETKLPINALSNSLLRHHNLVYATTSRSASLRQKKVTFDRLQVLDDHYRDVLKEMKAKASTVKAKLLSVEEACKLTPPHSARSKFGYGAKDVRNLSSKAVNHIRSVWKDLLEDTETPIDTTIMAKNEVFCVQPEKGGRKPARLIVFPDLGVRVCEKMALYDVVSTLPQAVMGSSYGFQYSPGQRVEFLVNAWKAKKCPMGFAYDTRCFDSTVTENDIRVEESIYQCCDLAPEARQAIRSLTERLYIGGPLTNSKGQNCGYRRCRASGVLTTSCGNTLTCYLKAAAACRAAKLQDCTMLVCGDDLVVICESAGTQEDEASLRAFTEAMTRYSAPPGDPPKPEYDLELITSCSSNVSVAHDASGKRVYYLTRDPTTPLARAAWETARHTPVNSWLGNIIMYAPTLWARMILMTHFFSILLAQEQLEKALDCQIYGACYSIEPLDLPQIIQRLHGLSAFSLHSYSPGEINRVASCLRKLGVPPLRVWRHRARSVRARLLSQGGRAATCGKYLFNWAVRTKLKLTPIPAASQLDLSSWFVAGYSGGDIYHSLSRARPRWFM

Compound | EC50 ([1]; FRET assay) [nM] | IC50 ([2]; preincubation protocol) [nM] | EC50 ([1]; Hepatitis C virus) [nM] | IC50 [2] [nM]
COc1ccc2c(c1)C1CC1(C(=O)N1C3CCC1CC(N(C)Cc1ccccc1)C3)Cn1c-2c(C2CCCCC2)c2ccc(C(=O)NS(=O)(=O)C(C)C)cc21 (stereo not drawn) [drawing 55] | 4.58 to 500 | 4.58 to 500 | – | –
COc1ccc2c(c1)C1CC1(C(=O)N1C3CCC1CC(N(C)Cc1ccccc1)C3)Cn1c-2c(C2CCCCC2)c2ccc(C(=O)NS(=O)(=O)C(C)C)cc21 (stereo not drawn) [drawing 56] | 4.58 to 500 | 4.58 to 500 | – | –
COc1ccc2c(c1)C1CC1(C(=O)N1C3CCCC1COC3)Cn1c-2c(C2CCCCC2)c2ccc(C(=O)NS(=O)(=O)C3CCCCC3)cc21 (stereo not drawn) [drawing 68] | – | – | 4.58 to 500 | 4.58 to 500
